What was measured:
thrombin [1] = biological target: T1, thrombin (Homo sapiens, UniProt P00734); assay: Measurement of the thrombin inhibition in buffer; assay type: biochemical; settings: human thrombin 0.06 nmol/l in Tris buffer pH 7.4, 22° C., substrate Boc-Asp(OBzl)-Pro-Arg-AMC; in some cases means of individual determinations
Description: To determine the thrombin inhibition of the substances listed above, a biochemical test system is constructed in which the conversion of a thrombin substrate is used for determining the enzymatic activity of human thrombin. Here, thrombin cleaves aminomethylcoumarin, which is measured fluorescently, from the peptic substrate. The determinations are carried out in microtitre plates.
Substances to be tested are dissolved in various concentrations in dimethyl sulphoxide and incubated for 15 min with human thrombin (0.06 nmol/l dissolved in 50 mmol/l of Tris buffer [C,C,C-tris(hydroxymethyl)aminomethane], 100 mmol/l of sodium chloride, 0.1% BSA [bovine serum albumin], pH 7.4) at 22° C. The substrate (5 μmol/l Boc-Asp(OBzl)-Pro-Arg-AMC from Bachem) is then added. After 30 min of incubation, the sample is excited at a wavelength of 360 nm and the emission is measured at 460 nm. The measured emissions of the test mixtures with test substance are compared to the control mixtures without test substance (only dimethyl sulphoxide instead of test substance in dimethyl sulphoxide) and IC50 values are calculated from the concentration/activity relationships. Representative activity data from this test are given in Table 1 below (in some cases as means of individual determinations): […]

thrombin [2] = biological target: T1, thrombin; assay: Determination of the thrombin-inhibitory activity in plasma samples (ecarin-activated); assay type: biochemical; settings: citrate plasma, ecarin activation, fluorogenic thrombin substrate; in some cases means of individual determinations
Description: To determine the inhibition of thrombin in plasma samples, plasma […] is activated by ecarin. Thrombin activity and/or its inhibition by potential inhibitors is/are then measured fluorenscently by addition of a substrate.
The substances to be tested are dissolved in various concentrations in dimethyl sulphoxide and diluted with water. In white 96-well flat-bottomed plates, 20 μl of substance dilution are mixed with 20 μl of ecarin solution (ecarin reagent, from Sigma E-0504, final concentration 20 mU per reaction) in Ca buffer (200 mM Hepes+560 mM sodium chloride+10 mM calcium chloride+0.4% PEG) or with 20 μl of Ca buffer (as unstimulated control). Furthermore, 20 μl of fluorogenic thrombin substrate (from Bachem 1-1120, final concentration 50 μmol/1) and 20 μl of citrate plasma (from Octapharma) are added, and the mixture is homogenized well. The plate is measured in a SpectraFluorplus Reader using a 360 nm excitation filter and a 465 nm emission filter every minute over 20 minutes. […] Representative activity data from this test are given in Table 2 below (in some cases as means of individual determinations): […]

Compound | IC50 (thrombin [1]) [nM] | IC50 (thrombin [2]) [nM]
COc1cc(C(=O)N2CC(C)OCC2(C)C)cc2nc(NCc3cc(Cl)ccn3)oc12 (racemic) [Example 44, (2-{[(4-Chloropyridin-2-yl)methyl]amino}-7-methoxy-1,3-benzoxazol-5-yl)(2,5,5-trimethylmorpholin-4-yl)methanone] | 32 | 
COc1cc(C(=O)N2CC(C)(C)NC(=O)C2CC(N)=O)cc2nc(NCc3cc(Cl)ccn3)oc12 (racemic) [Example 82, 2-{1-[(2-{[(4-Chloropyridin-2-yl)methyl]amino}-7-methoxy-1,3-benzoxazol-5-yl)carbonyl]-5,5-dimethyl-3-oxopiperazin-2-yl}acetamide] | 170 | 
CCO[C@@H]1CC(CO)N(C(=O)c2cc(OC)c3oc(NCc4cc(Cl)ccn4)nc3c2)C1 (single isomer, unassigned) [Example 3] | 330 | 
CCO[C@@H]1CC(CO)N(C(=O)c2cc(OC)c3oc(NC(C)c4cc(Cl)ccn4)nc3c2)C1 (single isomer, unassigned) [Example 5] | 2800 | 
[2H]C([2H])(C)O[C@@H]1CC(CO)N(C(=O)c2cc(OC)c3oc(NC(C)c4cc(Cl)ccn4)nc3c2)C1 (single isomer, unassigned) [Example 8] | 2600 | 
COc1cc(C(=O)N2C[C@H](OC3CC3)C[C@H]2CO)cc2nc(NC(C)c3cc(Cl)ccn3)oc12 (single isomer, unassigned) [Example 14] | 550 | 
COc1cc(C(=O)N2CC(C)(C)OCC2CC(C)O)cc2nc(NCc3cc(Cl)ccn3)oc12 (single isomer, unassigned) [Example 64, (2-{[(4-Chloropyridin-2-yl)methyl]amino}-7-methoxy-1,3-benzoxazol-5-yl) [5-(2-hydroxypropyl)-2,2-dimethylmorpholin-4-yl]methanone] | 44 | 
COc1cc(C(=O)N2CC(C)OCC2CC(C)O)cc2nc(NCc3cc(Cl)ccn3)oc12 (single isomer, unassigned) [Example 66, (2-{[(4-Chloropyridin-2-yl)methyl]amino}-7-methoxy-1,3-benzoxazol-5-yl) [5-(2-hydroxypropyl)-2-methylmorpholin-4-yl]methanone] | 28 | 
COc1cc(C(=O)N2CC(C)OCC2CCO)cc2nc(NCc3cc(Cl)ccn3)oc12 (single isomer, unassigned) [Example 71, (2-{[(4-Chloropyridin-2-yl)methyl]amino}-7-methoxy-1,3-benzoxazol-5-yl) [5-(2-hydroxyethyl)-2-methylmorpholin-4-yl]methanone] | 97 | 

The next compounds have a lower IC50 (thrombin [1]) than those just listed; values first:

IC50 (thrombin [1]) [nM] | IC50 (thrombin [2]) [nM] | Compound
1.7 | 11 | COc1cc(C(=O)N2CC(C)(CC(C)O)OCC2CF)cc2nc(NCc3cc(Cl)ccn3)oc12 (racemic) [Example 22, (2-{[(4-Chloropyridin-2-yl)methyl]amino}-7-methoxy-1,3-benzoxazol-5-yl) [5-(fluoromethyl)-2-(2-hydroxypropyl)-2-methylmorpholin-4-yl]methanone]
12 | 36 | COc1cc(C(=O)N2CC(C)(CCO)OCC2(C)C)cc2nc(NCc3cc(Cl)ccn3)oc12 (racemic) [Example 32, (2-{[(4-Chloropyridin-2-yl)methyl]amino}-7-methoxy-1,3-benzoxazol-5-yl) [2-(2-hydroxyethyl)-2,5,5-trimethylmorpholin-4-yl]methanone]
7.3 | 37 | COc1cc(C(=O)N2CC(C)(CC(C)O)OCC2(C)C)cc2nc(NCc3cc(Cl)ccn3)oc12 (racemic) [Example 34, (2-{[(4-Chloropyridin-2-yl)methyl]amino}-7-methoxy-1,3-benzoxazol-5-yl) [2-(2-hydroxypropyl)-2,5,5-trimethylmorpholin-4-yl]methanone]
6.6 |  | COc1cc(C(=O)N2CC(C)CCC2CC2(O)CC2)cc2nc(NCc3cc(Cl)ccn3)oc12 (single isomer, unassigned) [Example 88, (2-{[(4-Chloropyridin-2-yl)methyl]amino}-7-methoxy-1,3-benzoxazol-5-yl){2-[(1-hydroxycyclopropyl)methyl]-5-methylpiperidin-1-yl}methanone]
